These results are taken from US7589097B2, “Triazol[4,5-d] pyramidine derivatives and their use as purinergic receptor antagonists” (Vernalis Research Limited, priority 2001, dated 2009).

Counter-ions that a name gives are not always drawn.

In the case of `N#Cc1ccnc(Cn2nnc3c(-c4ccco4)nc(N)nc32)c1` [Example 105, 3-(4-cyano-2-pyridylmethyl)-7-(2-furyl)-3H-[1,2,3]triazolo[4,5-d]pyrimidine-5-amine], the melting point (usually the temperature of the solid-liquid transition) is 263.2 to 263.5 °C. The result for `Cc1ccc(-c2nc(N)nc3c2nnn3Cc2cccc(N)c2C)o1` [Example 180, 3-(3-amino-2-methylbenzyl)-7-(5-methyl-2-furyl)-3H-[1,2,3]triazolo[4,5-d]pyrimidine-5-amine] reads 278.4 to 279.9 °C; that for `Cc1ccc(N)c(Cn2nnc3c(-c4ccco4)nc(N)nc32)c1` [Example 104, 3-(2-amino-5-methylbenzyl)-7-(2-furyl)-3H-[1,2,3]triazolo[4,5-d]pyrimidine-5-amine], 249.9 to 250.5 °C; that for `COc1ccccc1Cn1nnc2c(-c3ccc(C)o3)nc(N)nc21` [Example 72, 3-(2-methyoxybenzyl)-7-(5-methyl-2-furyl)-3H-[1,2,3]triazolo[4,5-d]pyrimidine-5-amine], 195.4 to 196.5 °C. With `CC(C)CC(=O)NCc1cccc(Cn2nnc3c(-c4ccco4)nc(N)nc32)c1` [Example 85, N-(3-(5-amino-7-(2-furyl)-3H-[1,2,3]triazolo[4,5-d]pyrimidin-3-ylmethyl)benzyl)-3-methylbutanamide], the melting point lay within 215.9 to 217.5 °C.

In turn, `Cc1ccc(-c2nc(N)nc3c2nnn3Cc2ccc(N)cc2)o1` [Example 184, 3-(4-aminobenzyl)-7-(5-methyl-2-furyl)-3H-[1,2,3]triazolo[4,5-d]pyrimidine-5-amine] registered a melting point of 219.7 to 220.4 °C. The result for `Nc1nc(-c2ccco2)c2nnn(CCc3cccs3)c2n1` [Example 196, 7-(2-furyl)-3-(2-(2-thienylethyl))-3H-[1,2,3]triazolo[4,5-d]pyrimidine-5-amine] reads 178.4 to 179 °C; that for `C=CCOCc1cccc(Cn2nnc3c(-c4ccco4)nc(N)nc32)n1` [Example 185, 3-(6-allyloxymethyl-2-pyridylmethyl)-7-(2-furyl)-3H-[1,2,3]triazolo[4,5-d]pyrimidine-5-amine], 155.6 to 157.1 °C; that for `Nc1cccc(Cn2nnc3c(-c4ccn[nH]4)nc(N)nc32)c1` [Example 175, 3-(3-aminobenzyl)-7-(1H-pyrazol-3-yl)-3H-[1,2,3]triazolo[4,5-d]pyrimidine-5-amine], 279.3 to 281.3 °C. Then `Cc1cccc(C(=O)C(C)n2nnc3c(-c4ccco4)nc(N)nc32)n1` (stereo not shown) [Example 190, 2-(5-amino-7-(2-furyl)-3H-[1,2,3]triazolo[4,5-d]pyrimidin-3-yl)-1-(6-methyl-2-pyridyl)propanone], with 290.2 to 290.3 °C. The result for `COc1ccc(F)c(Cn2nnc3c(-c4ccco4)nc(N)nc32)c1` [Example 51, 3-(2-fluoro-5-methyoxybenzyl)-7-(2-furyl)-3H-[1,2,3]triazolo[4,5-d]pyrimidine-5-amine] reads 182.9 to 183.1 °C; that for `Cc1csc(-c2nc(N)nc3c2nnn3Cc2cccc([N+](=O)[O-])c2)n1` [Example 109, 7-(4-methyl-2-thiazolyl)-3-(3-nitrobenzyl)-3H-[1,2,3]triazolo[4,5-d]pyrimidine-5-amine], 289.8 to 289.9 °C. `CC(C)(C)OC(=O)NCc1ccc(Cn2nnc3c(-c4ccco4)nc(N)nc32)cc1` [Example 140, tert-butyl N-(4-(5-amino-7-(2-furyl)-3H-[1,2,3]triazolo[4,5-d]pyrimidine-3-ylmethyl)benzyl)carbamate] came in with a melting point of 184 to 185.2 °C. The result for `Cc1cc(Cn2nnc3c(-c4ccco4)nc(N)nc32)ccc1[N+](=O)[O-]` [Example 94, 7-(2-furyl)-3-(3-methyl-4-nitrobenzyl)-3H-[1,2,3]triazolo[4,5-d]pyrimidine-5-amine] reads 237.8 to 238 °C. Then `Cc1ccc(-c2nc(N)nc3c2nnn3Cc2cccc(-c3ccccc3)n2)o1` [Example 82, 7-(5-methyl-2-furyl)-3-(6-phenyl-2-pyridylmethyl)-3H-[1,2,3]triazolo[4,5-d]pyrimidine-5-amine], with 205 to 205.3 °C; and `Cc1noc(C)c1Cn1nnc2c(-c3ccco3)nc(N)nc21` [Example 91, 3-(3,5-dimethylisoxazol-4-ylmethyl)-7-(2-furyl)-3H-[1,2,3]triazolo[4,5-d]pyrimidine-5-amine], with 284.3 to 284.5 °C; and `Nc1nc(-c2ccco2)c2nnn(Cc3cc(F)ccc3F)c2n1` [Example 65, 3-(2,5-difluorobenzyl)-7-(2-furyl)-3H-[1,2,3]triazolo[4,5-d]pyrimidine-5-amine], with 208.1 to 208.2 °C. Then `CC(C)OCc1cccc(Cn2nnc3c(-c4ccco4)nc(N)nc32)n1` [Example 247, 7-(2-furyl)-3-(6-isopropoxymethyl-2-pyridylmethyl)-3H-[1,2,3]triazolo[4,5-d]pyrimidine-5-amine], with 134.5 to 134.6 °C. On to `Nc1nc(-c2ccco2)c2nnn(Cc3ccc(Cl)c(N)c3)c2n1` [Example 114, 3-(3-amino-4-chlorobenzyl)-7-(2-furyl)-3H-[1,2,3]triazolo[4,5-d]pyrimidine-5-amine], for which the melting point fell in the range of 256.7 to 257.1 °C. On to `Nc1ccc(F)c(Cn2nnc3c(-c4ccco4)nc(N)nc32)c1` [Example 79, 3-(5-amino-2-fluorobenzyl)-7-(2-furyl)-3H-[1,2,3]triazolo[4,5-d]pyrimidine-5-amine], for which the melting point is 308.2 to 308.3 °C. The result for `Cc1ccc(-c2nc(N)nc3c2nnn3Cc2ccccc2N)o1` (as salt: hydrochloride) [Example 74, 3-(2-aminobenzyl)-7-(5-methyl-2-furyl)-3H-[1,2,3]triazolo[4,5-d]pyrimidine-5-amine hydrochloride] reads 214.6 to 215.2 °C.

As to `CC(C)(C)OC(=O)n1ccc2cccc(Cn3nnc4c(-c5ccco5)nc(N)nc43)c21` [Example 137, tert-butyl 7-(5-amino-7-(2-furyl)-3H-[1,2,3]triazolo[4,5-d]pyrimidine-3-ylmethyl)indole-1-carboxylate], the melting point is 176.3 to 176.5 °C. Then `COc1ccnc(Cn2nnc3c(-c4ccco4)nc(N)nc32)c1` [Example 63, 7-(2-furyl)-3-(4-methoxy-2-pyridylmethyl)-3H-[1,2,3]triazolo[4,5-d]pyrimidine-5-amine], with 201.1 to 201.2 °C.

For the compound `Nc1cccc(Cn2nnc3c(-c4ccccc4)nc(N)nc32)c1` [Example 151, 3-(3-aminobenzyl)-7-phenyl-3H-[1,2,3]triazolo[4,5-d]pyrimidine-5-amine], the melting point lay within 251.2 to 251.5 °C. Regarding `Nc1nc(-c2ccco2)c2nnn(Cc3ccc(Cl)c([N+](=O)[O-])c3)c2n1` [Example 110, 3-(4-chloro-3-nitrobenzyl)-7-(2-furyl)-3H-[1,2,3]triazolo[4,5-d]pyrimidine-5-amine], the melting point fell in the range of 247.4 to 247.5 °C. Then `Cc1ccc(-c2nc(N)nc3c2nnn3Cc2cccc(Cl)c2)o1` [Example 62, 3-(3-chlorobenzyl)-7-(5-methyl-2-furyl)-3H-[1,2,3]triazolo[4,5-d]pyrimidine-5-amine], with 210.4 to 210.5 °C; and `COCCc1cccc(Cn2nnc3c(-c4ccco4)nc(N)nc32)n1` [Example 264, 7-(2-furyl)-3-(6-(2-methoxyethyl)-2-pyridylmethyl)-3H-[1,2,3]triazolo[4,5-d]pyrimidine-5-amine], with 162 to 162.6 °C. The result for `Nc1ccc(Cn2nnc3c(-c4ccco4)nc(N)nc32)cc1` [Example 141, 3-(4-aminobenzyl)-7-(2-furyl)-3H-[1,2,3]triazolo[4,5-d]pyrimidine-5-amine] reads 240.3 to 240.4 °C; that for `Cc1ccc(-c2nc(N)nc3c2nnn3Cc2cccc(CNC(=O)OC(C)(C)C)c2)o1` [Example 73, tert-butyl N-(3-(5-amino-7-(5-methyl-2-furyl)-3H-[1,2,3]triazolo[4,5-d]pyrimidine-3-ylmethyl)benzyl)carbamate], 178.7 to 179.3 °C; that for `Nc1nc(-c2ccco2)c2nnn(Cc3ccc4[nH]ncc4c3)c2n1` [Example 200, 7-(2-furyl)-3-(5-indazolylmethyl)-3H-[1,2,3]triazolo[4,5-d]pyrimidine-5-amine], > 300 °C (dec.). Then `Cc1ccc([N+](=O)[O-])c(Cn2nnc3c(-c4ccco4)nc(N)nc32)c1` [Example 96, 7-(2-furyl)-3-(5-methyl-2-nitrobenzyl)-3H-[1,2,3]triazolo[4,5-d]pyrimidine-5-amine], with 226.6 to 226.9 °C. In the case of `C=CCOCc1cccc(Cn2nnc3c(-c4ccc(C)o4)nc(N)nc32)n1` [Example 186, 3-(6-allyloxymethyl-2-pyridylmethyl)-7-(5-methyl-2-furyl)-3H-[1,2,3]triazolo[4,5-d]pyrimidine-5-amine], the melting point is 149 to 149.3 °C.

In the case of `CC(=O)NCc1ccccc1Cn1nnc2c(-c3ccco3)nc(N)nc21` [Example 178, N-(2-(5-amino-7-(2-furyl)-3H-[1,2,3]triazolo[4,5-d]pyrimidin-3-ylmethyl)benzyl)acetamide], the melting point was in the range of 216.7 to 218.4 °C. The result for `Nc1cccc(Cn2nnc3c(-c4cccs4)nc(N)nc32)c1` [Example 48, 3-(3-aminobenzyl)-7-(2-thienyl)-3H-[1,2,3]triazolo[4,5-d]pyrimidine-5-amine] reads 265.9 to 266 °C. Then `Cc1cnccc1Cn1nnc2c(-c3ccco3)nc(N)nc21` [Example 126, 7-(2-furyl)-3-(3-methyl-4-pyridylmethyl)-3H-[1,2,3]triazolo[4,5-d]pyrimidine-5-amine], with 229.6 to 230.3 °C; and `Nc1nc(-c2ccco2)c2nnn(Cc3ccc(F)c([N+](=O)[O-])c3)c2n1` [Example 129, 3-(4-fluoro-3-nitrobenzyl)-7-(2-furyl)-3H-[1,2,3]triazolo[4,5-d]pyrimidine-5-amine], with 266.5 to 266.7 °C; and `CC(C)c1cc(Cn2nnc3c(-c4ccco4)nc(N)nc32)nc(C(C)C)c1` [Example 199, 3-(4,6-diisopropyl-2-pyridylmethyl)-7-(2-furyl)-3H-[1,2,3]triazolo[4,5-d]pyrimidine-5-amine], with 226.5 to 227.9 °C.
